Results as given in article PMC2948233 (Organic & biomolecular chemistry, 2010).

Target: T1, phosphopantetheinyl transferase Sfp (Bacillus subtilis, UniProt P39135)
T1 sequence (P39135 1-224): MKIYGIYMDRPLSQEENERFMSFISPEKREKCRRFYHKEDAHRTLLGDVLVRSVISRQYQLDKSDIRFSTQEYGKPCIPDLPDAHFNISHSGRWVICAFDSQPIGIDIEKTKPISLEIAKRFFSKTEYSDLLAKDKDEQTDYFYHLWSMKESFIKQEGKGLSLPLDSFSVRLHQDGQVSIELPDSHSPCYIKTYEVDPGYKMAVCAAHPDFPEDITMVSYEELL
Assay: FRET-quench phosphopantetheinyl transferase assay
Assay type: biochemical

SMILES | IC50 [µM]
Clc1ccc(C(c2ccc(Cl)cc2)n2cc[n+](CC(OCc3ccc(Cl)cc3Cl)c3ccc(Cl)cc3Cl)c2)cc1 (centres unmarked) [calmidazolium chloride] | 20
N=C1Sc2ccccc2C2=NCCCN12 [PD 404,182] | 3.2
